In US6166076A, “Taste enhancing food additives” (Board of Supervisors of Louisiana State University and …, priority 1997, dated 2000):

Key:
[1] = test system: inactivating A-type K^+ channels (IA); test: whole-cell patch clamp, inactivating A-type K^+ current (IA) in rat fungiform taste receptor cells; format: cell-based, rat (Sprague-Dawley); conditions: 4-AP 10 mM; in presence of arachidonic acid; n=10 cells
Description: (§1) Voltage-activated currents were recorded from individual taste receptor cells maintained in the taste bud using the whole-cell patch clamp configuration, as generally described in Hamill et al., "Improved Patch-clamp Techniques for High-resolution Current Recording from Cells and Cell-free Membrane Patches," Pflugers Arch., Vol. 391, pp. 85-100 (1981). […]
(§2) Typical seal resistances on TRC membranes ranged from […] to greater than 50 G.OMEGA.. […] Commands were delivered and data recorded using pCLAMP software (version 6.0.3) interfaced to an AxoPatch 200A amplifier with a Digidata 1200A A-D board (Axon Instruments, Foster City, Calif.). […]
(§3) For analysis, currents during FFA application were averaged over a consistent time range corresponding to the steady-state condition, and were compared to currents in control (Tyrode's) solution. […] For analysis of delayed rectifying K^+ channels, currents were measured at command potentials of +40 mV during steady-state; inwardly rectifying currents, when investigated, were measured at -130 mV. Significant effects of FFAs on K^+ currents were determined by paired Student's t tests (α=0.05) compared to control currents immediately preceding the test stimulus. […]

[2] = test system: delayed rectifier K^+ channel; test: whole-cell patch clamp, delayed rectifier K^+ channel (steady-state outward K^+ current at +40 mV) in rat fungiform taste receptor cells; format: cell-based, rat (Sprague-Dawley)
Excerpt: (§4) The effects of free fatty acids ("FFAs") on taste buds isolated from rat fungiform papillae were examined to determine if a chemosensory (i.e. non-textural) cue for fats is located in the mouth. The methods used to isolate TRCs were generally as described in Behe et al., "Membrane Currents in Taste Cells of the Rat Fungiform Papilla: Evidence for Two Types of Ca Currents and Inhibition of K Currents by Saccharin," Journal of General Physiology, Vol. 96, pp. 1061-1084 (1990); Doolin et al., "Distribution and Characterization of Functional Amiloride-sensitive Sodium Channels in Rat Tongue," Journal of General Physiology, Vol. 107. pp. 545-554 (1996); and Gilbertson et al., "Proton Currents Through Amiloride-sensitive Na^+ Channels in Isolated Hamster Taste Cells: Enhancement by Vasopressin and cAMP," Neuron, Vol. 10, pp. 931-942 (1993).
(§5) Individual fungiform taste buds were isolated from the tongues of 2- to 5-month-old male Sprague-Dawley rats (Harlan Sprague Dawley, Indianapolis,Ind.). Animals were housed individually in polycarbonate cages with food (Purina #5001, Purina Mills, St. Louis, Mo.) provided ad lib. The room containing the rats was maintained at 21-23° C. on a 0700-1900 h light-dark cycle. All animal care and experimental procedures were in accordance with National Institutes of Health guidelines, and were approved by the Institutional Animal Care and Use Committee of the Pennington Biomedical Research Center.
(§6) Tongues were removed from euthanized rats, and were immediately placed in ice-cold Tyrode's solution. To remove the lingual epithelium containing the taste buds from the underlying muscle layer, approximately 1.0 ml of Tyrode's solution containing 0.3 mg/ml collagenase A (Boehringer Mannheim Corp., Indianapolis, Ind.), 2.5 mg/ml dispase (grade II; Boehringer Mannheim) and 1.0 mg/ml trypsin inhibitor (type I-S; Sigma Chemical Co., St. Louis, Mo.) was injected below the epithelium. The injected tongue was placed in Ca--Mg free Tyrode's solution and bubbled with O2 for 33-35 min. The lingual epithelium was removed and pinned serosal side up, allowing access to the taste buds. Fungiform taste buds were removed individually by gentle suction with a large, firepolished pipette (~200 μm diameter), and were plated onto Cell-Tak™-coated microscope slides (Collaborative Biomedical Prod., Bedford, Mass.) fitted with an O-ring which served as a recording chamber. Once plated, cells were perfused continually with Tyrode's or various test solutions. Taste buds isolated in this manner were used for up to 6 hours without any noticeable morphological or physiological decrement.
(§7) All chemicals were obtained from Sigma Chemical Corporation (St. Louis, Mo.) unless otherwise indicated. Normal extracellular solution (Tyrode's) contained (in mM): NaCl, 140; KCl, 5; CaCl2, 1; MgCl2, 1; HEPES (N-[2-hydroxyethyl] piperazine-N'-[2-ethanesulfonic acid), 10; glucose, 10; and sodium pyruvate, 10. The pH was adjusted to 7.40 with NaOH. In Ca^2+ --Mg^2+ free Tyrode's solution, 2 mM BAPTA (1,2-bis(2-aminophenoxy) ethane-N,N,N',N'-tetraacetic acid) (Molecular Probes, Eugene, Oreg.) replaced CaCl2 and MgCl2. Other components were identical to Tyrode's solution. Intracellular (pipette) solution contained (in mM): KCl, 140; CaCl2, 1 [free Ca^2+ was ~10^-8 M]; MgCl2, 2; HEPES, 10; EGTA (ethylene glycol-bis(β-aminoethylether)-N,N,N',N'-tetraacetic acid), 11; and ATP, 3. The pH was adjusted to 7.20 with KOH.
(§8) Free fatty acids (FFAs) were stored below -20° C. until the day of use, when they were dissolved in warm ethanol and diluted to final working concentrations in Tyrode's solution. Final ethanol concentrations in Tyrode's were below 0.1%; the ethanol had no effect on ionic currents in any TRCs. All FFAs were applied by bath perfusion. In some experiments, FFA-containing solutions were bubbled continuously with nitrogen to retard oxygenation. […]

[3] = test system: inwardly rectifying K^+ channels (Kir); test: whole-cell patch clamp, inwardly rectifying K^+ channels (Kir) at -130 mV in rat fungiform taste receptor cells; format: cell-based, rat (Sprague-Dawley)
Excerpt: as §4, §5, §6, §7, §8

[4] = test system: delayed rectifying K^+ channels; test: patch clamp, delayed rectifying K^+ channels of TRCs isolated from Osborne-Mendel rats; format: cell-based
Excerpt: (§9) To determine if there is a link between the sensitivity of TRCs to PUFAs and dietary fat preferences, the PUFA-sensitivities of TRCs using patch clamp techniques were compared on TRCs isolated from Osborne-Mendel ("O-M") rats and S5B/P1 rats, strains with different dietary preferences. O-M rats prefer fat over carbohydrate, while S5B/P1 rats prefer carbohydrate over fat. […] Rats whose TRCs were more sensitive to the fatty acids have a preference for a lower-fat diet; while rats whose TRCs are less sensitive to fatty acids seek diets that are higher in fat.

[5] = test system: delayed rectifying K^+ channels; test: patch clamp, delayed rectifying K^+ channels of TRCs isolated from S5B/P1 rats; format: cell-based
Excerpt: as §9

[6] = test system: cardiac atrial cells; conditions: applied extracellularly; cited from earlier work
[7] = test system: ATP-inhibitable K channel (KATP); test: whole-cell patch clamp, ATP-inhibitable K channel (KATP) residual current in rat fungiform taste receptor cells; format: cell-based, rat (Sprague-Dawley); conditions: glyburide 20 μM; in presence of arachidonic acid and 4-AP; n=6 cells
Description: as §1, §2, §3

## Nc1ccncc1 [4-aminopyridine]
[1]
  inhibition of the rapidly inactivating current (IA): reversibly and completely inhibited

## CCCCC/C=C\C/C=C\C/C=C\C/C=C\CCCC(=O)O [arachidonic acid]
[2]; 10 μM, >10 min (maximal effect), significance by paired t test
  effect on outward K^+ currents, specificity test: significantly reduced outward K^+ currents
[2]; 10 μM, +40 mV, n=44 cells
  inhibition of the voltage-activated steady-state outward K^+ current: 83%
[2]; 10 μM, n=18 cells
  mean time constant (ton) for the onset of effects: 4.37 ± 1.8 min
[2]; NDGA 10 μM and indomethacin 200 μM, n=5 cells
  inhibition of delayed rectifier K^+ channel in presence of NDGA and indomethacin: inhibited the delayed rectifier K^+ channel
[2]; arachidonic acid 0.25-100 μM, extracellular, all cells examined
  effect on outward K^+ currents / delayed rectifier K^+ channel (in words): reversible, slowly developing inhibition of the delayed rectifier K^+ channel
[2]; extracellular arachidonic acid
  time to reach maximum effect on outward K^+ currents: 10 to 15 min
[2]; n=18 cells
  recovery time constant (toff) from inhibition: 10.92 ± 5.9 min
[2]; presence of 10 μM arachidonic acid, control 457±103 msec, n=20
  time constant for inactivation of the outward K^+ current: 42 ± 26 ms
[2]; read-out: inhibition constant (Ki) for the delayed rectifier K^+ channel
  Ki: 1020 nM
[2]; summary statement
  stimulation of taste receptor cells: stimulate taste receptor cells
[3]; 10 μM arachidonic acid, approximately 30% of cells
  change of Kir over control levels, in words: approximately doubling Kir over control levels
[3]; 10 μM, -130 mV, n=16 cells, % of control
  Kir compared to control: 191%±19.7
[3]; 10 μM, subset of cells, of the total
  share of cells in which Kir was activated: approximately 30%
[3]; cells without Kir in control (saline) conditions
  activation of Kir in cells that did not show this current in control: not able to activate Kir
[3]; potentials more negative than -100 mV, n=37 cells
  effect on inward currents in cells without inward rectification: not significantly affected
[4]
  inhibition of the delayed rectifying K^+ channels, O-M rats: inhibited the delayed rectifying K^+ channels in a concentration-dependent manner
[5]; 10 μM, versus TRCs from O-M rats
  sensitivity of S5B/P1 TRCs to inhibition compared with O-M TRCs: significantly more sensitive to inhibition
[5]; TRCs from S5B/P1 rats
  inhibition of the delayed rectifying K^+ channels, S5B/P1 rats: inhibited the delayed rectifying K^+ channels in a concentration-dependent manner
[6]
  response of cardiac cells: responded

## COc1ccc(Cl)cc1C(=O)NCCc1ccc(S(=O)(=O)NC(=O)NC2CCCCC2)cc1 [glyburide]
[7]
  block of the residual (KATP) current: blocked the residual current
